Legend:
[1] = log-P (octanol/water partition coefficient) by HPLC, indole/curcumin calibration curve; type: physicochemical; details: calculated from indole/curcumin calibration curve, listed as CCC07-001
Procedure: The polyamides were further analyzed for log-P (octanol/water partition coefficient) by HPLC. The retention times of 2 types of compounds (compound names) having a known log-P value and the polyamides were measured in the presence of a mixed solvent of 0.1% aqueous acetic acid solution and acetonitrile by HPLC using isocratic elution. […] The log-P values of the polyamides were calculated from the curve.

SW480 cells [2] = test: Cytotoxicity and IC50 comparison with CBI by WST assay, 48 hours; type: cell-based, human; details: WST-8
Procedure: (§1) From the cell lines mentioned above, a large intestine cancer cell line SW480 was used as cells expressing PD-1, and a large intestine cancer cell line RKO was used as cells expressing PD-L1. An experiment was conducted to compare toxicity and IC50 between the PIP-drug conjugate compound CCC07-01 and the alkylating agent CBI used as a drug conjugate therein. The cells of each line were inoculated at 3000 cells/well to a 96-well microplate and cultured overnight. On the next day, the cells were treated with the PIP-CBI conjugate (CCC07-01) or CBI having a concentration of 0.1, 1, 10, 30, 100, 300, or 1000 nM (1 μM) for 48 hours. Then, WST-8 reagent was added to each well using Cell counting kit-8, and the mixture was reacted for 2 hours. Then, the cell count was calculated at a wavelength of 450 nm by the colorimetric analysis method using a microplate reader. The method for calculating the cell count involved: 1) obtaining the mean value of a medium alone, 2) subtracting the mean value of the medium from each well, 3) obtaining the mean value of DMSO, 4) dividing the medium mean value-subtracted value by the mean value of DMSO and then multiplying by 100, and 5) obtaining the mean value of each treatment group and a standard deviation, and preparing a graph. IC50 was calculated according to the following expression: IC50=10(LOG(A/B)×(50−C)/(D−C)+LOG(B) wherein A: a higher concentration of two concentrations sandwiching 50%, B: a lower concentration of two concentrations sandwiching 50%, C: the rate of inhibition at B, and D: the rate of inhibition at A.

RKO cells [3] = test: as above; type: cell-based, human; details: WST-8
Procedure: as §1

A2058 cells = test: Cytotoxicity test by WST assay, IC50 24 hours after administration; type: cell-based, human; details: WST-8
Procedure: (§2) From the cell lines mentioned above, a large intestine cancer cell line SW480 was used as cells expressing PD-1, a large intestine cancer cell line RKO was used as cells expressing PD-L1, and a malignant melanoma cell line A2058 and a pancreatic cancer cell line MIA PaCa-2 were used as cells expressing CTLA-4. The cells of each line were inoculated at 3000 cells/well to a 96-well microplate and cultured overnight. On the next day, the cells were treated with CCC07-01 having a concentration of 0.1, 1, 10, 30, 100, 300, or 1000 nM (1 μM) for 24 hours. Then, WST-8 reagent was added to each well using Cell counting kit-8, and the mixture was reacted for 2 hours. Then, the cell count was calculated at a wavelength of 450 nm by the colorimetric analysis method using a microplate reader. The method for calculating the cell count involved: 1) obtaining the mean value of a medium alone, 2) subtracting the mean value of the medium from each well, 3) obtaining the mean value of DMSO, 4) dividing the medium mean value-subtracted value by the mean value of DMSO and then multiplying by 100, and 5) obtaining the mean value of each treatment group and a standard deviation, and preparing a graph. IC50 was calculated according to the following expression: IC50=10(LOG(A/B)×(50−C)/(D−C)+LOG(B) wherein A: a higher concentration of two concentrations sandwiching 50%, B: a lower concentration of two concentrations sandwiching 50%, C: the rate of inhibition at B, and D: the rate of inhibition at A.
(§3) The cells used in the experiment were RKO (large intestine cancer), SW480 (large intestine cancer), A2058 (malignant melanoma), and MIA PaCa-2 (pancreatic cancer).

MIA PaCa-2 cells = test: as above; type: cell-based, human; details: MIA-PaCa2 cells, WST-8
Procedure: as §2, §3

SW480 cells [4] = test: as above; type: cell-based, human; details: WST-8
Procedure: as §2, §3

RKO cells [5] = test: as above; type: cell-based, human; details: WST-8
Procedure: as §2, §3

CC(=O)Nc1cn(C)c(C(=O)Nc2cc(C(=O)Nc3cn(C)c(C(=O)Nc4cn(C)c(C(=O)NCCC(=O)Nc5cc(C(=O)Nc6cc(C(=O)NCCCC(=O)Nc7cc(C(=O)Nc8cn(C)c(C(=O)NCCC(=O)Nc9cc(C(=O)Nc%10cc(C(=O)Nc%11ccc%12[nH]c(C(=O)N%13CC(CCl)c%14c%13cc(O)c%13ccccc%14%13)cc%12c%11)n(C)c%10)n(C)c9)n8)n(C)c7)n(C)c6)n(C)c5)n4)n3)n(C)c2)n1 (stereo not shown) [CCC07-01]
logPow [1]: 3.13
IC50 (SW480 cells [2]): 11 nM
IC50 (RKO cells [3]): 4 nM
IC50 (A2058 cells): 11 nM
IC50 (MIA PaCa-2 cells): 189 nM
IC50 (SW480 cells [4]): 27 nM
IC50 (RKO cells [5]): 12 nM
